ChEMBL document CHEMBL1201862, “PubChem BioAssay data set” (2004)
Calls of active or inactive are those of the source.

Experiments:
Interleukin-8 [1] = molecular target: T1, Interleukin-8 (Homo sapiens, UniProt P10145); experiment: Dose Response confirmation of uHTS small molecule hits for cystic fibrosis induced NFkb Inhibitors in a TNFa-induced IL8 counterscreen.; type: functional; conditions: read-out: IC50_Mean
T1 sequence (P10145 whole entry): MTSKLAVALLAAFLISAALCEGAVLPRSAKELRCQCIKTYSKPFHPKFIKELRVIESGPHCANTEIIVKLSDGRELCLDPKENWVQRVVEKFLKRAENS

[2] = molecular target: Acyl-homoserine lactone acylase PvdQ (Pseudomonas aeruginosa (strain LESB58), UniProt Q9I194); experiment: P. aeruginosa PvdQ acylase inhibitors, dose response, biochemical, fluorescence, plate reader and imaging, cherry-picks (AID 493231)
Acyl-homoserine lactone acylase PvdQ, sequence (Q9I194 24-193 limits assumed): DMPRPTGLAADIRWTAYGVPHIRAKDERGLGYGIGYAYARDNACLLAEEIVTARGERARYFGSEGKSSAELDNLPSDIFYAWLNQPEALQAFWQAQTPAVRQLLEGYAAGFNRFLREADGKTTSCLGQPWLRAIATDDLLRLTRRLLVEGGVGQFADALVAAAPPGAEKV
Acyl-homoserine lactone acylase PvdQ, sequence (Q9I194 217-762 limits assumed): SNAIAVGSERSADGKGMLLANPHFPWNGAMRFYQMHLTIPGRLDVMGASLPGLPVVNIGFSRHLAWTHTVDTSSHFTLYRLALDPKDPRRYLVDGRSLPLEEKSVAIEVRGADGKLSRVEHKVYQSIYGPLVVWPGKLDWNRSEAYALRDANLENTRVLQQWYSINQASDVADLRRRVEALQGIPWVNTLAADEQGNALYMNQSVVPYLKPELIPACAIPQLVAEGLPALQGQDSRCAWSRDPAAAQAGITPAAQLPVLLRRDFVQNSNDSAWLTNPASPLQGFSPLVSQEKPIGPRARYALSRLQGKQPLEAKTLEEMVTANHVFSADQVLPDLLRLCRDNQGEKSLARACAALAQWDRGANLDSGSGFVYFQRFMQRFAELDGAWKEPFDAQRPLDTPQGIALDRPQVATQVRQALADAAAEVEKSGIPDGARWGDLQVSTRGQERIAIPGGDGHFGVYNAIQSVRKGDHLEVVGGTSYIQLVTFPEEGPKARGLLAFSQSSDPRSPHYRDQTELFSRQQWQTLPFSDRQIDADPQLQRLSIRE

Interleukin-8 [3] = molecular target: T1, Interleukin-8; experiment: Dose Response confirmation of uHTS small molecule hits for cystic fibrosis induced NFkb Inhibitors in a PAF-induced IL8 counterscreen.; type: functional; conditions: read-out: IC50_Mean
Leucine aminopeptidase = molecular target: T2, Leucine aminopeptidase (Plasmodium falciparum 3D7, UniProt Q8IL11); experiment: P. falciparum M17LAP inhibitors, primary screen, biochemical, fluorogenic H-Leu-NHMec substrate, 1536-well (AID 1619); type: functional
T2 sequence (Q8IL11 whole entry): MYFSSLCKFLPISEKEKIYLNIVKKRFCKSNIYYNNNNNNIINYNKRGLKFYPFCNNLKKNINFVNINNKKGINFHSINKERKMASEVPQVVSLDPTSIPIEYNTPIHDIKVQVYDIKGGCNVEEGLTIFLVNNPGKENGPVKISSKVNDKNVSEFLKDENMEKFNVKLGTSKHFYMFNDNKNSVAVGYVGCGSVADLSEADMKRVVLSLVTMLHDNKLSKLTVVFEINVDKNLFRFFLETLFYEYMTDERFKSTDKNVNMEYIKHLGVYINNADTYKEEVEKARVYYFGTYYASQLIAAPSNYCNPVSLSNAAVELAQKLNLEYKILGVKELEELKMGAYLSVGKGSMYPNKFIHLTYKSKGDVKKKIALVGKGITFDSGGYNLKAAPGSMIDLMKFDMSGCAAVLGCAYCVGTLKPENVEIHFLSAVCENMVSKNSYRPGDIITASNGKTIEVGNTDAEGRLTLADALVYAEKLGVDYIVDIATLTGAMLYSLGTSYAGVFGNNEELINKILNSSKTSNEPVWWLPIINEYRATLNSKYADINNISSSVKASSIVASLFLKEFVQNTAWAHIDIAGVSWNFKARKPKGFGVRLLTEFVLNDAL

Protein RecA = molecular target: T3, Protein RecA (Mycobacterium tuberculosis, UniProt P9WHJ3); experiment: Fluorescence Cell-Free Homogeneous Dose Retest to Identify Inhibitors of RecA-Intein Splicing Activity. [Related pubchem assays (depositor defined):AID2097, AID2223, AID489010, AID492950]; type: functional
T3 sequence (P9WHJ3 whole entry): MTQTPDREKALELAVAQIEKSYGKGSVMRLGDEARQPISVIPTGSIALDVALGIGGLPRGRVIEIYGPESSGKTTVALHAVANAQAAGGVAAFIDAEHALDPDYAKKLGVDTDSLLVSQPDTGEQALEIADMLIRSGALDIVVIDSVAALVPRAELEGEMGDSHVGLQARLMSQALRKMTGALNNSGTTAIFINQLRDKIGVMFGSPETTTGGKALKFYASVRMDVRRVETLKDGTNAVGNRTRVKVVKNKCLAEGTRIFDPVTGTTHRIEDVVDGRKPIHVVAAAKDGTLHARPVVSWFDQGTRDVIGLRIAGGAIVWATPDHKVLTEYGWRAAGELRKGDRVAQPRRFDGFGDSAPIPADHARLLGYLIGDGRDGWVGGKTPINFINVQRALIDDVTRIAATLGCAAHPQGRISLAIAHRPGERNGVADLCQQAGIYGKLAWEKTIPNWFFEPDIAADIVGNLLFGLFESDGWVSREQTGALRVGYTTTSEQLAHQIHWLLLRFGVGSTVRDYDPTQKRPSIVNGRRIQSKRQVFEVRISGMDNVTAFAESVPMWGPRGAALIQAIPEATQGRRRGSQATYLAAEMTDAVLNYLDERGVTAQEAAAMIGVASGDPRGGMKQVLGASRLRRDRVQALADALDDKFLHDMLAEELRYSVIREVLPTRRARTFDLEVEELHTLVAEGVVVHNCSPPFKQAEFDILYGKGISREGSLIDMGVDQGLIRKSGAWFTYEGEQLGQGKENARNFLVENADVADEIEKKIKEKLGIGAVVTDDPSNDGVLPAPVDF

Estrogen receptor = molecular target: T4, Estrogen receptor (Homo sapiens, UniProt P03372); experiment: potentiators of ERα–SRC-1 coactivator binding, dose response, biochemical, TR-FRET, ERα LBD (AID 737)
T4 sequence (P03372 whole entry): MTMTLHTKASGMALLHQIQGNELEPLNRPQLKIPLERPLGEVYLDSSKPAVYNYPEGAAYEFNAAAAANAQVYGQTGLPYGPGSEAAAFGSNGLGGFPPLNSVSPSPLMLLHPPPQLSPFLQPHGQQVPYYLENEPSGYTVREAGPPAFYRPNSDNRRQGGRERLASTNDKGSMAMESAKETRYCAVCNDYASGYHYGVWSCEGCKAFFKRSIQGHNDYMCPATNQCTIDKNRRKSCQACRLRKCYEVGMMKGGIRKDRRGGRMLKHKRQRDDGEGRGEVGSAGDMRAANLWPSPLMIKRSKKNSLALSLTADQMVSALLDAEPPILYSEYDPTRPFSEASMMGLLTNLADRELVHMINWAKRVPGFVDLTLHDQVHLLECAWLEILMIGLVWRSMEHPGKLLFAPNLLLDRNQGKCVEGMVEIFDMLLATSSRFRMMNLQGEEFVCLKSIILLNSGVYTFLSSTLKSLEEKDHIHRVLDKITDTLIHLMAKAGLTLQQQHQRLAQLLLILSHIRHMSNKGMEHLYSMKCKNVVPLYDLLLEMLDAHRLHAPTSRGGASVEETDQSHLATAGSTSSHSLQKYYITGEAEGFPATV

[4] = molecular target: T5, Replicative DNA helicase DnaB (Mycobacterium tuberculosis, UniProt P9WMR3); experiment: DnaB intein splicing inhibitors, dose response, biochemical, cell-free fluorescence (AID 449749); type: functional
T5 sequence (P9WMR3 whole entry): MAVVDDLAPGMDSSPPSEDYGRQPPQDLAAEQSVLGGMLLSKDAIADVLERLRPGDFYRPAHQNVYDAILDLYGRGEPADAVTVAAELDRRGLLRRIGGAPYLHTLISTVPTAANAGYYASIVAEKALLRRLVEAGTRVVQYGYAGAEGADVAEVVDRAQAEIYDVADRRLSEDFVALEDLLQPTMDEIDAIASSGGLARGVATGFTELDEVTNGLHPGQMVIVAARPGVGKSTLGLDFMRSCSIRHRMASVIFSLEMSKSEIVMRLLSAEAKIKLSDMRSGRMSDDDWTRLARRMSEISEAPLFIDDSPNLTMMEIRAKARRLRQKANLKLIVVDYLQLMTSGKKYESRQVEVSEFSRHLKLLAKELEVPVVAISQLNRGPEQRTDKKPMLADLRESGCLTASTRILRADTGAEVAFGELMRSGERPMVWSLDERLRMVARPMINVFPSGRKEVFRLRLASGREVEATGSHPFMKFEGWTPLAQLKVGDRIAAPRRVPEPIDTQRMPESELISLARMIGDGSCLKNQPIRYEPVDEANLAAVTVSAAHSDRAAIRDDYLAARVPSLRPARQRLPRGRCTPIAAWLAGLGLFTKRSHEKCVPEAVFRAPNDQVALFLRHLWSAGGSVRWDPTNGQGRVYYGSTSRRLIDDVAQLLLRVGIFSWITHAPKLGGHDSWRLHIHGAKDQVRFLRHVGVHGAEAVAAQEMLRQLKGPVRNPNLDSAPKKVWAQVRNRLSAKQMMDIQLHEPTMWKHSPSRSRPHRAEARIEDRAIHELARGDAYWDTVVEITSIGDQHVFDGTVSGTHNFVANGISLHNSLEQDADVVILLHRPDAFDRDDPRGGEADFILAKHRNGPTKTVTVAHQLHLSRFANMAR

Protein Rev = Protein Rev (Human immunodeficiency virus type 1 group M subtype B (isolate HXB2)(HIV-1), UniProt P04618); experiment: inhibitors of Rev binding to RRE RNA, dose response, biochemical, fluorescence polarization, HIV-1 (AID 434976); design: species or system Human immunodeficiency virus 1
Protein Rev, sequence (P04618 whole entry): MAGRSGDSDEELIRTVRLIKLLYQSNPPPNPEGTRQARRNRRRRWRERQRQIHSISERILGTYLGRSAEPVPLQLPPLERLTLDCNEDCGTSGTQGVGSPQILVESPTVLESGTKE

[5] = molecular target: Female germline-specific tumor suppressor gld-1 (Caenorhabditis elegans, UniProt Q17339); experiment: inhibitors of GLD-1 binding to TGE RNA, dose response, biochemical, fluorescence polarization, C. elegans (AID 2802);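 note: fluorescence polarization of labeled TGE RNA bound by purified gld-1 protein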
Female germline-specific tumor suppressor gld-1, sequence (Q17339 whole entry): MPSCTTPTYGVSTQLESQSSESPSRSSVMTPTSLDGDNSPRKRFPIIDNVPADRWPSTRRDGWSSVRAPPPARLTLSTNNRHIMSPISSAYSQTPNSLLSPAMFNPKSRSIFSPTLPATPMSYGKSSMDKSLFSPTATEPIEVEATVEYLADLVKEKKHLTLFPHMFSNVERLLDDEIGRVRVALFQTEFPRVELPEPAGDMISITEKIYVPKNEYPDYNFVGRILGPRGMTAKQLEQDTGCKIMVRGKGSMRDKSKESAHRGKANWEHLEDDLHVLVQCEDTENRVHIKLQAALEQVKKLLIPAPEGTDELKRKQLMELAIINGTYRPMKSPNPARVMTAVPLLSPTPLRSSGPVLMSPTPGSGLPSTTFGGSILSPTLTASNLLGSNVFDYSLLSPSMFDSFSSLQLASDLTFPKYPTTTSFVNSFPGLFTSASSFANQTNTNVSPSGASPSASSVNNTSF

[6] = molecular target: Melanin-concentrating hormone receptor 1 (Homo sapiens, UniProt Q99705); experiment: Late-stage fluorescence-based counterscreen for antagonists of the G-protein coupled receptor 7 (GPR7): cell-based dose response assay to identify antagonists of the melanin-concentrating hormone receptor 1 (MCHR1). [Related pubchem assays (depositor defined):AID1861, AID1880, AID1952, AID2148, AID2251, AID2257, AID485339]; type: functional;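 note: stimulated with 30 nM MCH peptide agonist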
Melanin-concentrating hormone receptor 1, sequence (Q99705 whole entry): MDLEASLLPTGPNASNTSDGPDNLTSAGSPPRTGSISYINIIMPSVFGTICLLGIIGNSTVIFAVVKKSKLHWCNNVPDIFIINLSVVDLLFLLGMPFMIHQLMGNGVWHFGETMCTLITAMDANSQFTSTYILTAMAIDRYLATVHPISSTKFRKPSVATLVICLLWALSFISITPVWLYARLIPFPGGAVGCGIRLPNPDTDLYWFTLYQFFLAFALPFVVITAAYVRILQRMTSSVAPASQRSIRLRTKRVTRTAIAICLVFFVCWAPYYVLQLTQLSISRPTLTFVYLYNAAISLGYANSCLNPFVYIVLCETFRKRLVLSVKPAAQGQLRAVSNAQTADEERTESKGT

[7] = C. albicans growth with fluconazole, confirmation, fluorescence, retest (AID 2467); type: functional, cell-based
[8] = molecular target: ATP-dependent molecular chaperone HSP82 (Candida albicans (strain WO-1) (Yeast), UniProt C4YTQ8); experiment: loss of DOC-induced GRE-beta-galactosidase reporter signal, dose response, Hsp90 inhibitor project, S. cerevisiae, luminescence (AID 2400); type: functional, cell-based;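 note: beta-galactosidase luminescence from glucocorticoid response element reporter as proxy for Hsp90 function; inhibitor potency where signal loss means Hsp90 inhibition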
ATP-dependent molecular chaperone HSP82, sequence (C4YTQ8 whole entry): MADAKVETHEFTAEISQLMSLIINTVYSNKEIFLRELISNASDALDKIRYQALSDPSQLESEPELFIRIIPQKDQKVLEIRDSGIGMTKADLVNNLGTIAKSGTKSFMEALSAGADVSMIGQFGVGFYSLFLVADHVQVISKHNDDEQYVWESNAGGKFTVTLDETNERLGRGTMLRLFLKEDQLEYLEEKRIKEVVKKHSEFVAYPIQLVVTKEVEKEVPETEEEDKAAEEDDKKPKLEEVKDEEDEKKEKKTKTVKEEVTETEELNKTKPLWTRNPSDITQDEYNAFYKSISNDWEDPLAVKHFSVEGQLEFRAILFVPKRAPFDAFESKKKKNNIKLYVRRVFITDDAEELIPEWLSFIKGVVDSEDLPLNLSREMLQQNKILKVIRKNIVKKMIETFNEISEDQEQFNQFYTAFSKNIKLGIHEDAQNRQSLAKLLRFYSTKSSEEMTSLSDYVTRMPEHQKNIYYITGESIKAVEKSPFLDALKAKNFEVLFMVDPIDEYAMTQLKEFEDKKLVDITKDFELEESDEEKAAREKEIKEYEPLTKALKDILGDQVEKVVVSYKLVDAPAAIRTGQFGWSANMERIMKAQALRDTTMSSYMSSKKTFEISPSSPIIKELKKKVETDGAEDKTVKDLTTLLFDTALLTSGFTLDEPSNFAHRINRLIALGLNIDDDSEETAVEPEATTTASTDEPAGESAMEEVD

[9] = molecular target: T6, Serine/threonine-protein phosphatase (Candida dubliniensis (strain CD36 / CBS 7987 / NCPF 3949 / NRRLY-17841) (Yeast), UniProt B9W6M3); experiment: calcineurin pathway inhibitors in yeast reporter, dose response, S. cerevisiae, CDRE-lacZ, luminescence, secondary (AID 2388); type: functional, cell-based;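 note: yeast reporter cells carrying a calcineurin-responsive lacZ construct stimulated with calcium chloride; luminescent beta-galactosidase reporter signal in whole cells rather than isolated phosphatase activity; potency for inhibition where a drop in reporter signal means calcineurin blockade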
T6 sequence (B9W6M3 whole entry): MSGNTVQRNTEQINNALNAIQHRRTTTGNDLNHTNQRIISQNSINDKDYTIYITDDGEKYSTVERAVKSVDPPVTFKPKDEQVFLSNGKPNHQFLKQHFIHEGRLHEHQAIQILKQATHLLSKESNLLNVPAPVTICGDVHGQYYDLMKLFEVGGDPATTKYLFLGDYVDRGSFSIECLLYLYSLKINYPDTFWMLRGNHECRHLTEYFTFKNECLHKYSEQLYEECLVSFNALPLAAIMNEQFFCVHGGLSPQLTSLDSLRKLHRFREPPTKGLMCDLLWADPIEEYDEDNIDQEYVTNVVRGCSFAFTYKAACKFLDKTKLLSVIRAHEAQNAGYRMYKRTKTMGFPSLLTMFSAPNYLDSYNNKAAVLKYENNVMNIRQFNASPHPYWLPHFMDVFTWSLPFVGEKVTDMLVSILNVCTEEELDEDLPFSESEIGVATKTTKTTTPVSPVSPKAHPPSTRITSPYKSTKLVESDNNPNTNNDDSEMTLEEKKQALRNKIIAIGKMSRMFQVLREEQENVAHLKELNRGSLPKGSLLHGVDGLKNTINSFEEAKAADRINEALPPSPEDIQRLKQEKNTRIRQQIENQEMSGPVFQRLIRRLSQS

[10] = NIH-3T3 fibroblast cytotoxicity, dose response, cytotoxicity control, cell-based, fluorescence, Alamar Blue, secondary assay (AID 2327); type: functional;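 note: NIH-3T3 mouse fibroblasts cultured with fluconazole at 8 µg/mL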
[11] = inhibitors of Bluetongue virus cytopathic effect, confirmation, arbovirus, BSR cells (AID 1250); type: functional;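 note: protection from viral cytopathic effect measured as cell viability by ATP luminescence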
Kallikrein-7 = Kallikrein-7 (Homo sapiens, UniProt P49862); experiment: Fluorescence Intensity-based biochemical primary high throughput dose response assay to identify activators of kallikrein-7 (K7) zymogen.
Kallikrein-7, sequence (P49862 whole entry): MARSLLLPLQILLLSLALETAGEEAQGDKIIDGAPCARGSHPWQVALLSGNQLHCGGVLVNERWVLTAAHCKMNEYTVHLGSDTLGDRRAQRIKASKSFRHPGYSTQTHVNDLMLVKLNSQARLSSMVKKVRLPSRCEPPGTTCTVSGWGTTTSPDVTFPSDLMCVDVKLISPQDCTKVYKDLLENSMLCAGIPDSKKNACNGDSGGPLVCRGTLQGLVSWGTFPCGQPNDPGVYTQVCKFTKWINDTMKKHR

[12] = human group III sPLA2 inhibitors, dose response, biochemical, QFRET, IC50 (AID 743457);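 note: green fluorescence rise as the enzyme cleaves BODIPY PC-A2 in liposomes; potency for inhibition of the enzyme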
[13] = molecular target: Heat shock protein HSP 90-alpha (Homo sapiens, UniProt P07900); type: functional, organism-based
Nonstructural protein 1 = Nonstructural protein 1 (Influenza A virus, UniProt Q194T2); type: functional, Influenza A virus (A/California/07/2009(H1N1))
Nonstructural protein 1, sequence (Q194T2 whole entry): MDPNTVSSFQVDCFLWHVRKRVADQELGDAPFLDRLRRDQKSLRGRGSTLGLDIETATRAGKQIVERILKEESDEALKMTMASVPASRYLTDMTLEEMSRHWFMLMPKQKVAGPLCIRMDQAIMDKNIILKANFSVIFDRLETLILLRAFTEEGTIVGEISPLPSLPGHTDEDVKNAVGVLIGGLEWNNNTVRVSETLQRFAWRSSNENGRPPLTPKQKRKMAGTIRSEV

[14] = molecular target: Cystic fibrosis transmembrane conductance regulator/Golgi-associated PDZ and coiled-coil motif-containing protein (Homo sapiens, UniProt P13569+Q9HD26); experiment: CAL PDZ peptide-binding inhibitors, dose response, biochemical, fluorescence polarization, Cerulean-tagged CAL PDZ, cherry-picks (AID 504773)
Cystic fibrosis transmembrane conductance regulator/Golgi-associated PDZ and coiled-coil motif-containing protein, sequence (P13569 whole entry, other chains not shown): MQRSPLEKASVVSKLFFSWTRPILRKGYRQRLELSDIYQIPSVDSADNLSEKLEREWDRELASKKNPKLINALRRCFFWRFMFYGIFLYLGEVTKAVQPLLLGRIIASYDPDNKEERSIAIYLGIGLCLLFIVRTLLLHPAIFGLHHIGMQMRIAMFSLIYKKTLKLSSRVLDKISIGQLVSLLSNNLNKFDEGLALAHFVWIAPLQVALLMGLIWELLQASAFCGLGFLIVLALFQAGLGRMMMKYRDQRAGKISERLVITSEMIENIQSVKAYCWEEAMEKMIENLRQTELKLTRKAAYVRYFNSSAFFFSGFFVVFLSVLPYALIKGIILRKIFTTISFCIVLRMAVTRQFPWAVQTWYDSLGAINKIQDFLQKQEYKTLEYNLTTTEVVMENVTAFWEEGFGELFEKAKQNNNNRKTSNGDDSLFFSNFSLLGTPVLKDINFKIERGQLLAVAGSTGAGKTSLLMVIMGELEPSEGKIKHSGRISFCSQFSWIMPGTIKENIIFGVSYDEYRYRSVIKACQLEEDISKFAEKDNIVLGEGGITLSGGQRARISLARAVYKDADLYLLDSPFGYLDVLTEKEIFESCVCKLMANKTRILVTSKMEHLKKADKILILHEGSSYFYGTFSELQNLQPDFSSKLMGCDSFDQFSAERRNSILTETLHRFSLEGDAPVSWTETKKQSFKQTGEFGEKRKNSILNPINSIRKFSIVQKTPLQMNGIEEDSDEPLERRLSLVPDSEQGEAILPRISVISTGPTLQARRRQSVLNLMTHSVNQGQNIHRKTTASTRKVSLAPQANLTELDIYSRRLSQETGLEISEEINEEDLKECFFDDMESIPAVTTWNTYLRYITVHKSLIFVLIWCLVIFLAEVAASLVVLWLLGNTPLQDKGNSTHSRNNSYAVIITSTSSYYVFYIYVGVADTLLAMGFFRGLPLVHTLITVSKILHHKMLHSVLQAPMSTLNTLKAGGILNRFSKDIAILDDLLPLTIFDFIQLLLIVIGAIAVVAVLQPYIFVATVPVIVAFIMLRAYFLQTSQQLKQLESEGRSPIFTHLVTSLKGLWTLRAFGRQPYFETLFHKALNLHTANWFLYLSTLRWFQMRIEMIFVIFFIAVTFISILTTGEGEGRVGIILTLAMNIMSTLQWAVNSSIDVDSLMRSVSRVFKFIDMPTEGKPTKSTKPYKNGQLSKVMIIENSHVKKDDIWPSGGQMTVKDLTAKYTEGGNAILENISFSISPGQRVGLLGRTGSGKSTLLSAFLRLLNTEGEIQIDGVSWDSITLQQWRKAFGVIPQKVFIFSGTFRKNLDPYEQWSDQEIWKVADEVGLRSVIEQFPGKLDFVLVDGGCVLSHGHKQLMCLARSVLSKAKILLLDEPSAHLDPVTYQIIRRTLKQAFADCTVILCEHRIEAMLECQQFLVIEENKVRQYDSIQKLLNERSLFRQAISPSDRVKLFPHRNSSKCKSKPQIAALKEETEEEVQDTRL

## CN(c1ncnc(N)c1[N+](=O)[O-])C1CCCCC1
Interleukin-8 [1]
  IC50: 46.8 µM (inactive)
[2]
  AC50: 15.3 µM (active)
Interleukin-8 [3]
  IC50: 16.9 µM (inactive)

## CCOc1ccccc1C1C(C#N)=C(N)Nc2onc(-c3ccccc3)c21 (stereo not given)
Leucine aminopeptidase
  IC50: 52.7 µM (active)
Protein RecA
  EC50: 1.39 µM (active)
Estrogen receptor
  EC50: 17.5 µM (active)
[4]
  AC50: 2.47 µM (active)

## CCOC(=O)c1cc2c(ccn2C)n1CC(=O)N1CCN(c2cccc(C(F)(F)F)c2)CC1
Protein Rev
  IC50: > 75.4 µM (not active)
[5]
  IC50: > 6.63 µM (active)

## CC(C)c1ccc(-n2ncc(Cl)c(Oc3ccc(CO)cc3)c2=O)cc1
[6]
  IC50: 3.7 µM (active)

## Cc1oc2ccc(OC(=O)N(C)C)cc2c1C(=O)OC(C)C
[7]
  EC50: 1.34 µM (active)
[8]
  EC50: > 160 µM (inactive)
[9]
  EC50: > 180 µM (inactive)
[10]
  EC50: 137 µM (inconclusive)
[11]
  IC50: 35.1 µM (active)

## CC(=O)N1CCN(C2=Nc3cccc4cccc2c34)CC1
Protein Rev
  IC50: 15.8 µM (not active)
Kallikrein-7
  EC50: 36.7 µM (inactive)
[5]
  IC50: 7.57 µM (active)

## CN(C)c1ccc(/C=c2\c3ccccc3n3c2cc(-c2ccccc2)[n+]3C)cc1
[12]
  IC50: 66.8 µM (inactive)
[13]
  AC50: 4.19 µM (active)
Nonstructural protein 1
  IC50: 6.8 µM (active)
[14]
  AC50: 94 µM (active)

## Cc1cc(NC(=O)c2c(F)c(F)c(F)c(F)c2F)no1
[2]
  AC50: 1.24 µM (active)

## O=C(Nc1sc2c(c1C(=O)O)CCCCC2)c1cccs1
[11]
  IC50: 27.6 µM (active)

## C=Cc1cnn(-c2ccc(C(C)C)cc2)c(=O)c1Oc1ccc(OC)cc1
[6]
  IC50: 3.9 µM (active)
